Measured values as given in patent US20060189699A1, “Antimicrobial trinervitane derivatives” (Commonwealth Scientific and Industrial Researh Org, priority 2003, published 2006).
Entries after “also recorded” stand apart in the source; their conditions may differ. Like-named read-outs stand apart in the source and are kept apart here.

Tests used:
Bacillus subtilis = details: WO 01/90035, as compound 9; cited from earlier work
[1] = test system: Bacillus subtilis (ATCC Strain 6633); experiment: modified agar bioassay for weak antimicrobial activity (clear zone); assay type: cell-based; details: for level of antimicrobial activity relative to trinervitadienes previously isolated from N. triodiae: screening assays, qualitative, potency not determined quantitatively
Experimental: Extracts of the worker and soldier castes of the nasute termite species Nasutitermes exitiosus (Hill) (Isoptera:Termitidae) were screened against Bacillus subtilis (ATCC Strain 6633) at a concentration of 4.0 mg/ml in a bioassay. […] The only difference between the assay used in the current work and that described previously (WO 01/90035) is that in the current case the density of bacterial cells in the Luria-Bertani agar medium was ten times lower than that described in the earlier specification.
Twelve mL of a 70% methanol extract of N. exitiosus soldiers (containing 86 mg of solute) was fractionated by reverse-phase HPLC using a semi-preparative column at a flow rate of 4 ml/min and a gradient from water containing 0.05% (v/v) trifluroacetic acid to 100% acetonitrile over 20 minutes and then 100% acetonitrile for a further 15 minutes. The UV absorbance of the eluant was monitored at 230 nm. Fractions were collected over 35 minutes. Corresponding fractions were pooled across replicate separation runs and the pooled fractions were evaporated to dryness under nitrogen. Residues of the fractions were redissolved in HPLC grade water (fractions from 1-8 minutes), 70% aqueous methanol (9-15 minutes), or methanol (16-35 minutes).

[2] = isolated HPLC sub-fractions / purified compounds
[3] = purified components of fraction F2, modified antimicrobial assay

C/C1=C/CC[C@H](C)CCC2C(C)[C@@H]3C1CC[C@]3(C)[C@@H](O)[C@@H]2O (stereo partly drawn) [S, 1(15),8(9)-trinervitadiene-2β,3α-diol]
antimicrobial activity shown in the earlier patent specification (Bacillus subtilis): antimicrobial activity
antimicrobial / biological activity [1, 2]: biologically active; also recorded: confirmed

1(15),8(9)-trinervitadiene-3α-ol-2-one
antimicrobial / biological activity [1, 2]: biologically active; also recorded: antimicrobial compound; also recorded: confirmed
level of antimicrobial activity relative to trinervitadienes previously isolated from N. triodiae [1]: qualitatively similar levels of antimicrobial activity

C=C1/C2=C\C[C@@H](C)C/C=C/C(=C)[C@@H]3CC[C@@](C)([C@H]13)[C@@H](O)[C@@H]2O [P, 9E-1(14),8(19),9(10),15(17)-trinervitatetraene-2β,3α-diol]
clear zone diameter ([1]; pooled reverse-phase HPLC fractions of soldier extract, quantity corresponding to 20 μL of crude extract): 4 mm
level of antimicrobial activity relative to trinervitadienes previously isolated from N. triodiae [1]: qualitatively similar levels of antimicrobial activity

C=C1/C2=C\C[C@@H](C)CCC/C(C)=C3/CC[C@@](C)([C@H]13)[C@@H](O)[C@@H]2O [R, 1(14),7(8),15(17)-trinervitatriene-2β,3α-diol]
antimicrobial / biological activity [1, 2]: biologically active
clear zone diameter [1, 3]: 5 mm
level of antimicrobial activity relative to trinervitadienes previously isolated from N. triodiae [1]: qualitatively similar levels of antimicrobial activity

C=C1/C2=C\C[C@@H](C)CCCC(=C)[C@@H]3CC[C@@](C)([C@H]13)[C@@H](O)[C@@H]2O [Q, 1(14),8(19),15(17)-trinervitatriene-2β,3α-diol]
antimicrobial / biological activity [1, 2]: biologically active
clear zone diameter [1, 3]: 4 mm
level of antimicrobial activity relative to trinervitadienes previously isolated from N. triodiae [1]: qualitatively similar levels of antimicrobial activity

1(15),8(19)-trinervitadiene-2β,3α,9α-triol 2,3,9-triacetate [U]
antimicrobial / biological activity [1]: biologically active; also recorded: antimicrobial activity; also recorded: confirmed
level of antimicrobial activity relative to trinervitadienes previously isolated from N. triodiae [1]: qualitatively similar levels of antimicrobial activity
